Results on one molecule are retold here after patent US20210106708A1, “THERMORESPONSIVE COMPOSITIONS AND METHODS FOR PREVENTING AND DISRUPTING BIOFILMS” (CASE WESTERN RESERVE UNIVERSITY, priority 2018, published 2021).

One data set concerns S. aureus biofilms. The data set is described as follows: Biofilm dispersal assay (crystal violet stain). Format: cell-based. As for the experimental part:
S. aureus were cultured overnight in agar plates or in lysogeny broth (LB) with agitation (200 rpm) at 37° C. Biofilm formation was evaluated under static conditions using 12-well plates (Falcon, USA). Bacterial cultures made overnight were diluted to an OD595 of 0.1 and further diluted 100× (˜10^5 CFU/mL) in modified tryptic soy broth (3% NaCl, 0.5% glucose) and each well was filled with 2 mL of the diluted bacterial solution and incubated at 37° C. for 24 h. Biofilm dispersal activities were evaluated by removing the culture media from the biofilms after 24 h and replacing it with saline solution (0.9% NaCl) containing either individual or a combination of amino acids at the specified concentrations (pH 7.4), or the other antimicrobial agents used in the clinic (vancomycin, bacitracin, NeutroPhase, Hibiclens). After exposure to the different treatment methods, the plates were gently washed with phosphate buffered saline (PBS, 1×) thrice and then stained with 500 μL of 0.1% (w/v) crystal violet for 30 min. The wells were then washed with PBS and the crystal violet stain was solubilized with 30% acetic acid. The solution was diluted 20 times and biofilm biomass was estimated by measuring the crystal violet stained biofilm remnants, which absorbs at 595 nm.

The subject of another data set is HeLa cells. The data set is described as follows: PrestoBlue cell viability assay. Format: cell-based. The following applies: 200 mM vancomycin; 2 and 24 h incubation; hydrochloride. As for the experimental part: HeLa cells were cultured in Dulbecco's Modified Eagle Medium supplemented with 10% fetal bovine serum and 1% penicillin/streptomycin at 37° C. in 5% CO2 in a humidified atmosphere. The cells were seeded to 100% confluence in clear 96-well tissue culture plates (Costar, Corning, N.Y., USA) for 24 h. The cells were then exposed to the different treatments in media and incubated for the specified time. After treatment, the cells were washed in sterile phosphate buffered saline and incubated in 100 μL/well of DMEM (10% FBS, 1% penicillin/streptomycin). Cell viability was evaluated using the PrestoBlue assay (Invitrogen, USA), following the manufacturer's instructions. Briefly, 10 μL of PrestoBlue assay reagent was directly added to each well and the plates were incubated at the cell culture incubator (37° C. and 5% CO2) for 2 h. The absorbance at 570 and 600 nm were then measured using a SpectraMax i3 microplate reader (Molecular Device Inc., Sunnyvale, Calif.). All assays were performed in triplicates.

Entries after “also recorded” stand apart in the source; their conditions may differ. Counter-ions that a name gives are not always drawn.

With `CN[C@H](CC(C)C)C(=O)N[C@H]1C(=O)N[C@@H](CC(N)=O)C(=O)N[C@H]2C(=O)N[C@H]3C(=O)N[C@H](C(=O)N[C@H](C(=O)O)c4cc(O)cc(O)c4-c4cc3ccc4O)[C@H](O)c3ccc(c(Cl)c3)Oc3cc2cc(c3O[C@@H]2O[C@H](CO)[C@@H](O)[C@H](O)[C@H]2O[C@H]2C[C@](C)(N)[C@H](O)[C@H](C)O2)Oc2ccc(cc2Cl)[C@H]1O` [vancomycin, vancomycin hydrochloride], the biofilm disruption entry is on record as “promising results” with S. aureus biofilms (200 mM vancomycin, 24 h incubation) and “do not disrupt preformed biofilms” with S. aureus biofilms (2 to 256 ppm, 24 h, preformed biofilms). Further, in the data set on HeLa cells, the in vitro cytotoxicity entry was “extremely toxic; also recorded: extreme cell toxicity”.
